One compound from paper PMC7777204, “Locking mixed-lineage kinase domain-like protein in its auto-inhibited state prevents necroptosis” (Proceedings of the National Academy of Sciences of the …, 2020) can be followed below.

Broadly, the IC50 is the concentration that gives 50% inhibition.

Some results are limits rather than exact numbers.

The target in assay [1] is T1, human MLKL executioner domain (WT) (Homo sapiens, UniProt Q8NB16).
T1 construct: 80 µM MLKL N-terminal executioner domain (residues 1 to 154) was used; GST (thrombin cleavage site) (cleaved yes)
T1 sequence (Q8NB16 1-154): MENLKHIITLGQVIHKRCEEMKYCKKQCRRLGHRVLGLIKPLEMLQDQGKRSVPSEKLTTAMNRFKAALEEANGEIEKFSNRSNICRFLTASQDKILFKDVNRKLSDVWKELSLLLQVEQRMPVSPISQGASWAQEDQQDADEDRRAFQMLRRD
The assay is described as follows: Functional NMR assay (detachment of α-helix 6), WT. The format is biochemical. The settings on record: WT. The text has this: To test the significance of the additional interaction between α-helix 6 and the four-helix bundle provided by the xanthine compounds stacking to the phenyl ring of Phe148, we used a described functional NMR assay ([12]). Binding of phytic acid (IP6) and the detergent β-D-nonylmaltoside (NM) led to the detachment of α-helix 6, which can be monitored in ^1H,^15N-correlation spectra by the altered chemical shift of the Hε1–Nε1 correlation of Trp133 and the backbone N–H correlation of Ala141 ([12]). […] Adding 12 mM NM or 500 µM IP6 led to the appearance of a second very weak peak reporting on the detached α-helix 6 with a population of the activated state (pact) of 1% and 4%, respectively (Fig. 3). […] Combining 12 mM NM and 500 µM IP6 induced a dramatic increase of the population of the detached state (pact 86%). […] To further validate the importance of the π–π stacking interaction between the xanthine and Phe148 in α-helix 6, we carried out the functional NMR assay with the F148A-mutated variant of MLKL. The removal of the phenyl group induced significant CSPs localized in close proximity to the mutation site, due to the removal of ring currents and, therefore, strong electronic changes. […] MLKL F148A was more sensitive to the addition of 12 mM NM, 500 µM IP6, or the combination thereof. In the spectra in the presence of NM and the combination of NM and IP6, a third Trp133 peak appeared, most likely reporting on a state similar to the active state. […] Thus, the stacking interaction of the xanthine core to Phe148 is vital for the inhibitory activity of these MLKL inhibitors.
Fig. 3. (A and B) The region of the NMR ^1H,^15N-correlation spectra of the MLKL executioner domain (protein concentration: 80 µM) containing the cross-peaks of Trp133 Nε1–Hε1 in the auto-inhibited state where α-helix 6 is attached to the four-helix bundle (inact. state) and in the active, detached state (act. state) are shown. The unliganded state is depicted in black, with 12 mM NM in cyan; 500 µM IP6 in orange; 500 µM Cpd 3 in blue; 12 mM NM and 500 µM IP6 in red; and 12 mM NM, 500 µM IP6, and 500 µM Cpd 3 in green. The spectra depicted in A are measured with the WT protein and in B with the F148A variant. […] Dark gray bars correspond to the WT, while light gray bars correspond to the F148A variant. The asterisk means that no active conformation could be detected. Double asterisks indicate data not determined.
For the functional NMR assay ^1H,^15N-correlation spectra were recorded on a Bruker Avance III HD 600-MHz NMR spectrometer equipped with a cryogenic QCI probe in 2.5-mm NMR tubes at 298 K. Spectra were recorded with 64 complex points in the indirect dimension, 96 scans, and an interscan delay of 2 s. For the samples, 80 µM MLKL N-terminal executioner domain (residues 1 to 154) was used in a 20 mM sodium phosphate buffer at pH 7.5 containing 150 mM sodium chloride and 1 mM TCEP. For the different conditions, either 500 µM IP6, 12 mM NM, or a combination of the two were used. The xanthine compounds were tested at 500 µM, while NSA, due to limited solubility, was tested only at 200 µM, which is sufficient to saturate MLKL. Spectra were analyzed, and peaks were integrated in CcpNnmr analysis ([39]).

The test system of assay [2] is U937 cells. The assay can be described thus: U937 cytotox assay. Format: cell-based. To be noted: Homo sapiens, U-937, without huTNFα and zVAD-fmk, read-out: U937 TOX IC50. On the procedure: (§1) MLKL antagonists were also evaluated in a necroptosis assay with U937 cells ([26]) (ATCC catalog no. CRL-1593.2). The assay procedure with U937 cells was as described for the Jurakt FADD^−/− necroptosis assay with the following modifications: 8,000 cells were seeded per well, and, in addition to the recombinant huTNFα, cells were also incubated in the presence of 10 µM (f.c.) carbobenzoxy-valyl-alanyl-aspartyl-[O-methyl]-fluoromethylketone (zVAD-fmk) (Enzo Life Sciences catalog no. ALX-260-020). Low controls (0% CTL) were defined as cells treated with 100 ng/mL recombinant huTNFα plus 10 µM zVAD-fmk.
MLKL antagonists were tested in cytotox assays by using Jurkat FADD^−/− and U937 cells according to the assay procedures described for the necroptosis assays, but without treatment with recombinant huTNFα and/or zVAD-fmk. High controls (100% CTL, no effect) were defined as cells treated with DMSO, and low controls (0% CTL) were defined as medium without cells (0% CTL, maximal effect).
(§2) All cellular assays were done for Cpd 1, Cpd 2, Cpd 3, Cpd 4, and Cpd 5 in duplicate and in quadruplet for NSA.

Assay [3] concerns U937 cells. The assay can be described thus: U937 apoptosis assay. The format is cell-based. To be noted: Homo sapiens, U-937, 100 ng/mL huTNFα plus 3 µM NSA, read-out: U937 APOP IC50. As to the method:
as §1
Furthermore, MLKL antagonists were tested in a U937 apoptosis assay in the presence of 3 µM (f.c.) NSA (Tocris catalog no. 5025) and 100 ng/mL (f.c.) recombinant huTNFα in the same way as described for the U937 necroptosis assay. Low controls (0% CTL) were defined as cells treated with 100 ng/mL recombinant huTNFα plus 3 µM NSA.
as §2

`Cn1c(=O)c2c(nc(S(C)(=O)=O)n2C)n(CC#Cc2cccc(O)c2)c1=O` [Cpd 3]: in assay [1] (80 µM protein, 12 mM NM + 500 µM IP6 + 500 µM compound, without compound pact 86%), the “Population of the activated state (pact), α-helix 6 detached” value came out at 19%. Further, in assay [1] (compound alone (Cpd 3 500 µM, NSA 200 µM), no NM/IP6), the “Induction of the active state by compound alone” value is recorded as “did not induce the active state”. The IC50 is 25.5 µM in assay [2] and over 100 µM in assay [3].
